Assay results reported in BigSolDB 2.1.

c1ccc2cc3ccccc3cc2c1
Conditions	solubility (mole fraction)
in DMAc, 293.15 K	0.0083
in DMAc, 298.85 K	0.0113
in DMAc, 303.85 K	0.0142
in DMAc, 308.75 K	0.0159
in DMAc, 313.95 K	0.0185
in DMAc, 319.75 K	0.0215
in DMAc, 324.25 K	0.025
in DMAc, 328.05 K	0.0269
in DMAc, 332.2 K	0.0301
in DMAc, 333.15 K	0.029
in DMAc, 339.35 K	0.0338
in DMAc, 344.95 K	0.0393
in DMAc, 348.45 K	0.0432
in DMAc, 350.3 K	0.0502
in DMAc, 354.55 K	0.0485
in DMAc, 359.25 K	0.0564
in DMF, 293.35 K	0.0042
in DMF, 298.45 K	0.0054
in DMF, 303 K	0.0057
in DMF, 303.15 K	0.0068
in DMF, 308 K	0.0072
in DMF, 308.45 K	0.0086
in DMF, 312.8 K	0.0101
in DMF, 313.21 K	0.0114
in DMF, 313.65 K	0.0104
in DMF, 317.4 K	0.011
in DMF, 318.15 K	0.0127
in DMF, 318.85 K	0.0131
in DMF, 322.8 K	0.0139
in DMF, 323.25 K	0.015
in DMF, 326.28 K	0.0166
in DMF, 329.15 K	0.018
in DMF, 333.15 K	0.0191
in DMF, 334.55 K	0.0211
in DMF, 334.9 K	0.0221
in DMF, 339.75 K	0.0252
in DMF, 345.05 K	0.0292
in DMF, 348.29 K	0.032
in DMF, 349.85 K	0.0336
in DMF, 353.55 K	0.0384
in DMF, 358.85 K	0.0448
in DMF, 359.48 K	0.0452
in NMP, 293.45 K	0.0152
in NMP, 299.15 K	0.0186
in NMP, 303.45 K	0.0217
in NMP, 308.55 K	0.0255
in NMP, 314.05 K	0.0325
in NMP, 317.84 K	0.043
in NMP, 318.15 K	0.0409
in NMP, 324.75 K	0.0455
in NMP, 331.21 K	0.0546
in NMP, 331.25 K	0.0539
in NMP, 335.25 K	0.0591
in NMP, 339.75 K	0.0653
in NMP, 344.55 K	0.0738
in NMP, 349.85 K	0.0804
in NMP, 350.45 K	0.0825
in NMP, 353.55 K	0.0884
